Data as given in patent US20080064027A1, “TEL/Etv6-mediated inhibition of cell proliferation” (priority 2002, published 2008).
“And” between values parts separate entries of the source, which are not always exact repeats. Identical values can stand only once. Like-named read-outs stand apart in the source and are kept apart here.

Tested on: Stat3-ER expressing A375 cells
Type: cell-based
Protocol: In order to understand Stat3's ability to affect cell proliferation and cell death, we have examined the profile of genes expressed upon Stat3 activation in A375 cells using oligonucleotide microarrays.
Briefly, microarray analysis was performed using HG U95A GeneChips™ (Affymetrix, Santa Clara, USA) essentially according to the manufacturer's instructions. […] RNA from three independent experiments was pooled and biotin-labeled cRNA probes were generated from each sample starting from 10 μg of total cellular RNA. The resulting biotinylated cRNAs were hybridized to the Affymetrix U95A oligonucleotide array containing more than 12,000 sequences and signals detected. Chip analysis was performed using the Affymetrix Microarray Suite v5 (target intensity 500 used for chip scaling) and GeneSpring 4.2.1 (Silicon Genetics). Changes in gene expression were assessed by looking for concordant changes between replicates using a signed Wilcoxon rank test (as recommended by Affymetrix).

oncostatin M [OSM]
expression change (fold): H. sapiens mRNA; cDNA DZFZp586N012: 1.5 and 1.6
expression change (fold): Absent in melanoma 2 (Avge of clones): 2.9
expression change (fold): Alpha-1-antichymotrypsin precursor (Avge of clones): 2.8
expression change (fold): Aquaporin 3 (Avge of clones): 4.1
expression change (fold): Brain-derived neurotrophic factor (Avge of clones): 4.8
expression change (fold): CCAAT/enhancer binding protein (C/EBP), delta (Avge of clones): 2.7
expression change (fold): Cathepsin L (Avge of clones): 2.8
expression change (fold): Cytokine receptor-like factor 1 (Avge of clones): 1.9
expression change (fold): Death-associated protein kinase 1 (Avge of clones): 5.2
expression change (fold): Ephrin A1 precursor (Avge of clones): 2.1
expression change (fold): Ets variant gene 6 (Avge of clones): 3.9
expression change (fold): Fibronectin (Avge of clones): 2.0
expression change (fold): Fibronectin 1, isoform 1 preproprotein (Avge of clones): 1.6
expression change (fold): Glycine dehydrogenase (decarboxylating, glycine decdarboxylase, glycine cleavage system protein P) (Avge of clones): 2.5
expression change (fold): I factor (complement) (Avge of clones): 2.3
expression change (fold): Insulin-like growth factor binding protein 3 (Avge of clones): 2.4
expression change (fold): Intercellular adhesion molecule 1 precursor (Avge of clones): 1.9
expression change (fold): Interferon induced transmembrane protein 1 (9-27) (Avge of clones): 1.4
expression change (fold): Interleukin 8 (Avge of clones): 0.5
expression change (fold): Jun B proto-oncogene (Avge of clones): 2.5
expression change (fold): KIAA0161 gene product (Avge of clones): 1.6
expression change (fold): KIAA0303 protein (Avge of clones): 3.5
expression change (fold): KIAA0500 protein (Avge of clones): 3.0
expression change (fold): Killer cell lectin-like receptor subfamily C, member 2 (Avge of clones): 2.7
expression change (fold): Killer cell lectin-like receptor subfamily C, member 3 isoform NKG2-E (Avge of clones): 3.6
expression change (fold): Kynureninase (L-kynurenine hydrolase) (Avge of clones): 2.2
expression change (fold): MHC class II transactivator (Avge of clones): 3.0
expression change (fold): MHC, class II, DQ alpha 1 precursor (Avge of clones): 2.4
expression change (fold): MHC, class II, DQ beta 1 (Avge of clones): 2.5
expression change (fold): Major vault protein (Avge of clones): 2.7
expression change (fold): Nicotinamide N-methyltransferase (Avge of clones): 2.4
expression change (fold): Niemann-Pick disease, type C1 (Avge of clones): 2.1
expression change (fold): Oncostatin M receptor (Avge of clones): 2.0
expression change (fold): Osteoprotegrin (Avge of clones): 2.9
expression change (fold): Prostatic acid phosphatase precursor (Avge of clones): 7.4
expression change (fold): Ras-induced senescence 1 (Avge of clones): 1.8
expression change (fold): Regenerating islet-derived 1 alpha (pancreatic stone protein, pancreatic thread protein) (Avge of clones): 3.0
expression change (fold): Regulator of G protein signalling 16 (Avge of clones): 2.9
expression change (fold): STAT induced STAT inhibitor 3 (Avge of clones): 10.7
expression change (fold): Secreted phosphoprotein 1 (osteopontin, bone sialoprotein 1, early T-lymphocyte activation 1) (Avge of clones): 7.5
expression change (fold): Serine (or cysteine) protease inhibitor, clade B (ovalbumin), member 3 (Avge of clones): 27.8
expression change (fold): Small inducible cytokine A2 (monocyte chemotactic protein 1) (Avge of clones): 1.2
expression change (fold): Solute carrier family 2 (facilitated glucose transporter), member 3 (Avge of clones): 2.3
expression change (fold): Stanniocalcin 1 (Avge of clones): 3.7
expression change (fold): Tyrosine phosphatase/TIGR = HG620-HT620 (Avge of clones): 1.2
expression change (fold): v-fos FBJ murine osteosarcoma viral gene homologue (Avge of clones): 3.7
expression change (fold): v-jun avian sarcoma virus 17 oncogene homologue (Avge of clones): 1.2
expression change (fold): v-maf musculoaponeurotic fibrosarcoma oncogene homologue (avian) (Avge of clones): 3.0
expression change (fold): Aquaporin 3 (Avge of clones, 2nd listing): 8.0
expression change (fold): Fibronectin 1, isoform 1 preproprotein (Avge of clones, 2nd listing): 1.5
expression change (fold): Insulin-like growth factor binding protein 3 (Avge of clones, 2nd listing): 2.0
expression change (fold): Interleukin 8 (Avge of clones, 2nd listing): 0.9
expression change (fold): Kynureninase (L-kynurenine hydrolase) (Avge of clones, 2nd listing): 1.5
expression change (fold): Oncostatin M receptor (Avge of clones, 2nd listing): 1.9
expression change (fold): Prostatic acid phosphatase precursor (Avge of clones, 2nd listing): 1.3
expression change (fold): Secreted phosphoprotein 1 (osteopontin, bone sialoprotein 1, early T-lymphocyte activation 1) (Avge of clones, 2nd listing): 4.6
expression change (fold): v-jun avian sarcoma virus 17 oncogene homologue (Avge of clones, 2nd listing): 1.5
expression change (fold): Kynureninase (L-kynurenine hydrolase) (Avge of clones, 3rd listing): 1.7
expression change (fold): Absent in melanoma 2 (Clone1): 2.7
expression change (fold): Alpha-1-antichymotrypsin precursor (Clone1): 3.1
expression change (fold): Aquaporin 3 (Clone1): 4.5
expression change (fold): Brain-derived neurotrophic factor (Clone1): 4.8
expression change (fold): CCAAT/enhancer binding protein (C/EBP), delta (Clone1): 3.9
expression change (fold): Cathepsin L (Clone1): 2.3
expression change (fold): Cytokine receptor-like factor 1 (Clone1): 3.0
expression change (fold): Death-associated protein kinase 1 (Clone1): 3.5
expression change (fold): Ephrin A1 precursor (Clone1): 1.3
expression change (fold): Ets variant gene 6 (Clone1): 3.9
expression change (fold): Fibronectin (Clone1): 0.9
expression change (fold): Fibronectin 1, isoform 1 preproprotein (Clone1): 1.2
expression change (fold): Glycine dehydrogenase (decarboxylating, glycine decdarboxylase, glycine cleavage system protein P) (Clone1): 2.5
expression change (fold): I factor (complement) (Clone1): 2.5
expression change (fold): Insulin-like growth factor binding protein 3 (Clone1): 2.6
expression change (fold): Intercellular adhesion molecule 1 precursor (Clone1): 1.7
expression change (fold): Interferon induced transmembrane protein 1 (9-27) (Clone1): 2.2
expression change (fold): Interleukin 8 (Clone1): 0.4
expression change (fold): Jun B proto-oncogene (Clone1): 2.7
expression change (fold): KIAA0161 gene product (Clone1): 1.5
expression change (fold): KIAA0303 protein (Clone1): 4.5
expression change (fold): KIAA0500 protein (Clone1): 2.3
expression change (fold): Killer cell lectin-like receptor subfamily C, member 2 (Clone1): 4.3
expression change (fold): Killer cell lectin-like receptor subfamily C, member 3 isoform NKG2-E (Clone1): 6.7
expression change (fold): Kynureninase (L-kynurenine hydrolase) (Clone1): 2.6
expression change (fold): MHC class II transactivator (Clone1): 3.4
expression change (fold): MHC, class II, DQ alpha 1 precursor (Clone1): 2.5
expression change (fold): MHC, class II, DQ beta 1 (Clone1): 2.4
expression change (fold): Major vault protein (Clone1): 2.9
expression change (fold): Nicotinamide N-methyltransferase (Clone1): 2.8
expression change (fold): Niemann-Pick disease, type C1 (Clone1): 1.7
expression change (fold): Oncostatin M receptor (Clone1): 1.9
expression change (fold): Osteoprotegrin (Clone1): 5.2
expression change (fold): Prostatic acid phosphatase precursor (Clone1): 4.5
expression change (fold): Ras-induced senescence 1 (Clone1): 1.8
expression change (fold): Regenerating islet-derived 1 alpha (pancreatic stone protein, pancreatic thread protein) (Clone1): 3.0
expression change (fold): Regulator of G protein signalling 16 (Clone1): 3.7
expression change (fold): STAT induced STAT inhibitor 3 (Clone1): 11.6
expression change (fold): Secreted phosphoprotein 1 (osteopontin, bone sialoprotein 1, early T-lymphocyte activation 1) (Clone1): 3.8
expression change (fold): Serine (or cysteine) protease inhibitor, clade B (ovalbumin), member 3 (Clone1): 28.8
expression change (fold): Small inducible cytokine A2 (monocyte chemotactic protein 1) (Clone1): 0.9
expression change (fold): Solute carrier family 2 (facilitated glucose transporter), member 3 (Clone1): 1.9
expression change (fold): Stanniocalcin 1 (Clone1): 2.8
expression change (fold): Tyrosine phosphatase/TIGR = HG620-HT620 (Clone1): 0.9
expression change (fold): v-fos FBJ murine osteosarcoma viral gene homologue (Clone1): 2.9
expression change (fold): v-jun avian sarcoma virus 17 oncogene homologue (Clone1): 1.4
expression change (fold): v-maf musculoaponeurotic fibrosarcoma oncogene homologue (avian) (Clone1): 2.5
expression change (fold): Aquaporin 3 (Clone1, 2nd listing): 9.2
expression change (fold): Fibronectin 1, isoform 1 preproprotein (Clone1, 2nd listing): 0.6
expression change (fold): Insulin-like growth factor binding protein 3 (Clone1, 2nd listing): 2.4
expression change (fold): Interleukin 8 (Clone1, 2nd listing): 1.2
expression change (fold): Kynureninase (L-kynurenine hydrolase) (Clone1, 2nd listing): 1.8
expression change (fold): Oncostatin M receptor (Clone1, 2nd listing): 1.9
expression change (fold): Prostatic acid phosphatase precursor (Clone1, 2nd listing): 1.0
expression change (fold): Secreted phosphoprotein 1 (osteopontin, bone sialoprotein 1, early T-lymphocyte activation 1) (Clone1, 2nd listing): 3.5
expression change (fold): v-jun avian sarcoma virus 17 oncogene homologue (Clone1, 2nd listing): 1.8
expression change (fold): Kynureninase (L-kynurenine hydrolase) (Clone1, 3rd listing): 1.9
expression change (fold): Absent in melanoma 2 (Clone2): 3.1
expression change (fold): Alpha-1-antichymotrypsin precursor (Clone2): 2.4
expression change (fold): Aquaporin 3 (Clone2): 3.8
expression change (fold): Brain-derived neurotrophic factor (Clone2): 4.7
expression change (fold): CCAAT/enhancer binding protein (C/EBP), delta (Clone2): 1.6
expression change (fold): Cathepsin L (Clone2): 3.4
expression change (fold): Cytokine receptor-like factor 1 (Clone2): 0.9
expression change (fold): Death-associated protein kinase 1 (Clone2): 6.9
expression change (fold): Ephrin A1 precursor (Clone2): 2.9
expression change (fold): Ets variant gene 6 (Clone2): 4.0
expression change (fold): Fibronectin (Clone2): 3.1
expression change (fold): Fibronectin 1, isoform 1 preproprotein (Clone2): 1.9
expression change (fold): Glycine dehydrogenase (decarboxylating, glycine decdarboxylase, glycine cleavage system protein P) (Clone2): 2.5
expression change (fold): I factor (complement) (Clone2): 2.2
expression change (fold): Insulin-like growth factor binding protein 3 (Clone2): 2.1
expression change (fold): Intercellular adhesion molecule 1 precursor (Clone2): 2.1
expression change (fold): Interferon induced transmembrane protein 1 (9-27) (Clone2): 0.6
expression change (fold): Interleukin 8 (Clone2): 0.6
expression change (fold): Jun B proto-oncogene (Clone2): 2.2
expression change (fold): KIAA0161 gene product (Clone2): 1.7
expression change (fold): KIAA0303 protein (Clone2): 2.4
expression change (fold): KIAA0500 protein (Clone2): 3.8
expression change (fold): Killer cell lectin-like receptor subfamily C, member 2 (Clone2): 1.0
expression change (fold): Killer cell lectin-like receptor subfamily C, member 3 isoform NKG2-E (Clone2): 0.4
expression change (fold): Kynureninase (L-kynurenine hydrolase) (Clone2): 1.7
expression change (fold): MHC class II transactivator (Clone2): 2.6
expression change (fold): MHC, class II, DQ alpha 1 precursor (Clone2): 2.3
expression change (fold): MHC, class II, DQ beta 1 (Clone2): 2.6
expression change (fold): Major vault protein (Clone2): 2.5
expression change (fold): Nicotinamide N-methyltransferase (Clone2): 1.9
expression change (fold): Niemann-Pick disease, type C1 (Clone2): 2.4
expression change (fold): Oncostatin M receptor (Clone2): 2.1
expression change (fold): Osteoprotegrin (Clone2): 0.7
expression change (fold): Prostatic acid phosphatase precursor (Clone2): 10.2
expression change (fold): Ras-induced senescence 1 (Clone2): 1.9
expression change (fold): Regenerating islet-derived 1 alpha (pancreatic stone protein, pancreatic thread protein) (Clone2): 3.0
expression change (fold): Regulator of G protein signalling 16 (Clone2): 2.1
expression change (fold): STAT induced STAT inhibitor 3 (Clone2): 9.7
expression change (fold): Secreted phosphoprotein 1 (osteopontin, bone sialoprotein 1, early T-lymphocyte activation 1) (Clone2): 11.3
expression change (fold): Serine (or cysteine) protease inhibitor, clade B (ovalbumin), member 3 (Clone2): 26.7
expression change (fold): Small inducible cytokine A2 (monocyte chemotactic protein 1) (Clone2): 1.5
expression change (fold): Solute carrier family 2 (facilitated glucose transporter), member 3 (Clone2): 2.6
expression change (fold): Stanniocalcin 1 (Clone2): 4.6
expression change (fold): Tyrosine phosphatase/TIGR = HG620-HT620 (Clone2): 1.6
expression change (fold): v-fos FBJ murine osteosarcoma viral gene homologue (Clone2): 4.6
expression change (fold): v-jun avian sarcoma virus 17 oncogene homologue (Clone2): 1.0
expression change (fold): v-maf musculoaponeurotic fibrosarcoma oncogene homologue (avian) (Clone2): 3.5
expression change (fold): Aquaporin 3 (Clone2, 2nd listing): 6.7
expression change (fold): Fibronectin 1, isoform 1 preproprotein (Clone2, 2nd listing): 2.3
expression change (fold): Insulin-like growth factor binding protein 3 (Clone2, 2nd listing): 1.7
expression change (fold): Interleukin 8 (Clone2, 2nd listing): 0.7
expression change (fold): Kynureninase (L-kynurenine hydrolase) (Clone2, 2nd listing): 1.3
expression change (fold): Oncostatin M receptor (Clone2, 2nd listing): 2.0
expression change (fold): Prostatic acid phosphatase precursor (Clone2, 2nd listing): 1.7
expression change (fold): Secreted phosphoprotein 1 (osteopontin, bone sialoprotein 1, early T-lymphocyte activation 1) (Clone2, 2nd listing): 5.7
expression change (fold): v-jun avian sarcoma virus 17 oncogene homologue (Clone2, 2nd listing): 1.1
expression change (fold): Kynureninase (L-kynurenine hydrolase) (Clone2, 3rd listing): 1.4
